Measured values: PMC4890880 (ACS infectious diseases, 2016)
Like-named read-outs stand apart in the source and are kept apart here.

Tests used:
HepG2-A16-CD81EGFP cells [1] = test: cells; settings: Homo sapiens, HepG2, read-out: % inhibition
HepG2-A16-CD81EGFP cells [2] = test: cells; settings: Homo sapiens, HepG2, read-out: % inhibition; remark: listed apart in the source
[3] = tested on: Plasmodium berghei (Pb-Luc) exoerythrocytic-stage parasites; test: microbe, parasite or virus in culture; settings: for inhibition at 10 µM: read-out: PbLuc max inhibition (%) @ 10 uM
HepG2-A16-CD81EGFP cells [4] = test: cells; settings: Homo sapiens; for IC50: HepG2, read-out: Tox IC50; for inhibition at 50 µM: HepG2, read-out: Tox max inhibition (%) @ 50 uM; for inhibition at 10 µM: HepG2, read-out: Tox max inhibition (%) @ 10 uM
[5] = target: QuantiLum Recombinant Luciferase (Photinus pyralis, UniProt P08659); test: Bioluminescence quantification of compound luciferase inhibition; settings: for Emax: read-out: LucInhib max inhibition
[6] = read-out: Inhibition% @ 50 uM rep1
[7] = read-out: Inhibition% @ 50 uM rep2
[8] = HepG2, read-out: HepG2 Tox% @ 50 uM rep1
[9] = HepG2, read-out: HepG2 Tox% @ 50 uM rep2
[10] = read-out: PbLuc IC50, dose response, 1/3 dilutions, max conc. 10 or 50 uM, unit inferred
[11] = read-out: PbLuc max inhibition (%) @ 50 uM
[12] = read-out: PbLuc IC50, dose response, unit inferred

QuantiLum Recombinant Luciferase, sequence (P08659 whole entry): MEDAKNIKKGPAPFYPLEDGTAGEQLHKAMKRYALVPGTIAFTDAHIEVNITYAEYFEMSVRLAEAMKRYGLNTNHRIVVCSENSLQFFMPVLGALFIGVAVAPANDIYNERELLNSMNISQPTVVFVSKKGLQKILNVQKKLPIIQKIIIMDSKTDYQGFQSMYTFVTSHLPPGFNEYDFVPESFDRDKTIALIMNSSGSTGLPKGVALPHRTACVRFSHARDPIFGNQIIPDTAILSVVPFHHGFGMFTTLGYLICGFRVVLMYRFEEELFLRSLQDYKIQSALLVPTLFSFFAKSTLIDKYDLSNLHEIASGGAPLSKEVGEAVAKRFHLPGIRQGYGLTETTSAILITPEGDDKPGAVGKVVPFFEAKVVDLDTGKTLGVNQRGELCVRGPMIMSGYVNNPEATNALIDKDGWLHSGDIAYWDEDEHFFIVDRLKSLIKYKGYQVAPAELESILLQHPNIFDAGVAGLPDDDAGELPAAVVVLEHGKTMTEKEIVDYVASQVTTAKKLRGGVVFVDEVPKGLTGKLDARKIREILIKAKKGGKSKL

Structure (SMILES)	inhibition at 50 µM (HepG2-A16-CD81EGFP cells [1]) [%]	inhibition at 50 µM (HepG2-A16-CD81EGFP cells [2]) [%]	inhibition at 50 µM [3, 6] [%]	inhibition at 50 µM [3, 7] [%]	cytotoxicity at 50 µM (HepG2-A16-CD81EGFP cells [4]; [8]) [%]	cytotoxicity at 50 µM (HepG2-A16-CD81EGFP cells [4]; [9]) [%]	IC50 (HepG2-A16-CD81EGFP cells [4]) [µM]	inhibition at 50 µM (HepG2-A16-CD81EGFP cells [4]) [%]	IC50 [3, 10] [µM]	inhibition at 50 µM [3, 11] [%]	IC50 [5] [µM]	Emax [5] [%]	inhibition at 10 µM (HepG2-A16-CD81EGFP cells [4]) [%]	IC50 [3, 12] [µM]	inhibition at 10 µM [3] [%]
COc1ccc(C2Sc3ccccc3N=C3C2=C(O)c2ccccc23)cc1 (centres unmarked) [MMV000563]	62.5	71.1	103	104											
Cc1ccc(CN2CCC(C(=O)Nc3ccc(-c4cc5ccccc5[nH]4)cc3)CC2)o1 [MMV666071]	42.7	43.9	98	96											
O=C(Nc1ccsc1C(=O)NC1CCCCC1)c1ccc(F)cc1 [MMV665939]	25.8	35	71	43											
CCOc1ccc(-c2nc(NC(=O)c3cccc(S(C)(=O)=O)c3)sc2C)cc1 [MMV665913]	60.5	62.9	95	98											
O=C(c1ccccc1F)N(Cc1ccc(Cl)cc1)c1ccccn1 [MMV665899]			100	98	20	28	> 50	6	9.54	94	> 50	40			
CCOc1ccc(Nc2ccnc3cc(Cl)ccc23)cc1 [MMV007285]			88	91	16		> 50	14	1.65	100	> 50	47			
CC(=O)Nc1nnc(SCc2c(C)cc(C(C)(C)C)cc2C)s1 [MMV020700]			103	105	0.191	8	> 50	10	2.29	103	> 50	34			
CCOc1cc2c(cc1OCC)C(c1cc(OC)c(O)cc1Cl)NCC2 (centres unmarked) [MMV008956]			101	100	-6.54	-15	> 10				> 20	24	9	> 10	22
O=C(Nc1ccc(N2CCN(Cc3ccccc3)CC2)cc1)c1cccs1 [MMV019670]			102	102	-7.52	-9	> 10		0.0944		> 20	14	32		110
O=C(NC1CCN(Cc2ccccc2)CC1)c1cc(-c2cccnc2)nc2ccc(Cl)cc12 [MMV020490]			95	91	0.383	-0.245	> 50	12		71	> 50	23		> 50	
Oc1c2c(nc3cc(-c4ccccc4)nn13)CCCC2 [MMV008270]			103	104	-14	-22	> 10		0.147		0.577	92	8		106
CCOC(=O)c1cnc2c(C)cccc2c1Nc1ccc(C(C)=O)cc1 [MMV006250]			88	91	18		> 50	0		84	> 50	27		28.2	
CCCCCC(=O)N1c2ccccc2N=C2CC(c3ccc(OC)c(OC)c3)CC(O)=C2C1c1ccc(C(F)(F)F)cc1 (centres unmarked) [MMV085583]			97	90	14	28	> 50	4.23	7.1	89	> 50	34			
N#Cc1nc(Cc2cccc3ccccc23)oc1N1CCN(C(c2ccccc2)c2ccccc2)CC1 [MMV396726]			97	92	-11		> 50	-1	2.68	100	> 50	23			
CC(C)(C)c1ccc(C2CC3=Nc4ccccc4N(C(=O)c4ccccc4Cl)C(c4ccc(F)cc4)C3=C(O)C2)cc1 (centres unmarked) [MMV011436]			93	94	1.44		> 50	19	2.39	99	> 50	20			
Cc1ccc(-c2cc3c(SCC(=O)Nc4cc(C(F)(F)F)ccc4Cl)nccn3n2)cc1 [MMV396680]			92	85	-4	2.13	> 50	11	8.63	95	> 50	21			
CCCc1c(C)nc2ccccc2c1O [MMV666081]			101	103	0.331	-5.31	> 10		0.195		> 20	18	2.31		100
CCCc1c(C)nc2ccc(Br)cc2c1O [MMV666095]			102	103	-21		> 50	-6	0.794	106	> 50	25			
CCOc1ccccc1CN1CCc2nc3cc(C(C)(C)C)nn3c(O)c2C1 [MMV396595]			99	100	0.78		> 50	8	0.569	106	> 50	50			
CCOC(=O)c1cn(CC)c2cc(N3CCCCC3)c(F)cc2c1=O [MMV665827]			102	105	-12	-7	> 10		0.0743		> 20	24	15		99
Cc1ccc(-c2cc3nc4c(c(O)n3n2)CCCC4)cc1 [MMV006937]			103	102	-11	-9	> 10		0.114		1.79	92	6.62		110
COc1ccc2c(c1OC)C(=O)N1c3ccccc3N=C(c3ccc(C)cc3)CC21 (centres unmarked) [MMV000917]			96	95	15		> 50	7		96	> 50	23		> 50	
CCOc1ccc(C=Cc2nc(=O)c3ccccc3o2)cc1 [MMV665940]			102	101	19	1	> 50	18	0.646	104	16.5	85			
COc1ccc(C(C)=O)cc1N1C(=O)C2C(C1=O)C1(c3ccccc3)C(=O)C2(c2ccccc2)C(c2ccc(C)cc2)=C1c1ccc(C)cc1 (centres unmarked) [MMV007695]			101	104	-1.58	13	> 50	5.54		60	> 50	35		24.8	
Cc1c(C)n(Cc2ccc(F)cc2)c2ccc(C(=O)NCc3ccco3)cc12 [MMV008149]			102	102	9	19	> 50	32	0.765	107	> 50	10			
CCN(CC)c1ccc(NC(=O)c2cccs2)cc1 [MMV009060]			101	102	7	16	> 50	6	1.76	104	33.1	80			
COc1ccc(N2CCN(C(CNC(=O)C3CCCCC3)c3ccc4c(c3)OCO4)CC2)cc1 (centres unmarked) [MMV019662]			89	94	18	28	> 50	19		49	> 50	38		> 50	
